Assay results from PMC9856062, “Nano-Zirconium Dioxide Catalyzed Multicomponent Synthesis of Bioactive Pyranopyrazoles That Target Cyclin Dependent Kinase 1 in Human Breast Cancer Cells” (Biomedicines, 2023).
Where “and” joins values, the source holds several entries; their conditions need not be identical. Identical values can stand only once. Like-named read-outs stand apart in the source and are kept apart here.

Tests used:
[1] = tested on: MCF-7 cells; experiment: MCF-7 cell viability assay (Alamar Blue); type: cell-based, human; conditions: for IC50: MCF-7 cells; for effect on viability of MCF-7 cells: 0, 0.01, 0.1, 10, and 100 µM
Protocol: We obtained MCF-7 cells from Procell Life Science and Technology. A humidified atmosphere of 5% CO2 was maintained at 37 °C for the culture of MCF-7 cells (2000) in MEM or Leibovitz’s L-15 medium enriched with 2% FBS [21, 22, 23, 24]. DMSO was used to prepare a stock solution of pyranopyrazoles, and the stock solution was then diluted with culture medium to achieve the desired concentration. […] Incubation with AlamarBlue assay reagent was performed for a further 4 h. According to the established protocol, the IC50 values of compounds were determined in the absence and presence of pyranopyrazoles.
Figure 4 Loss of MCF-7 cell viability produced by compounds 5b 5d, and 5f. MCF-7 cells were exposed to 5b (A), 5d (B), and 5f (C) for 72 h and the viability of cells was analyzed by Alamar Blue assays. The results are presented as mean ± S.E.M. of triplicate determinations.

[2] = tested on: T47D; experiment: Breast cancer cell proliferation, Alamar Blue, T47D; type: cell-based; conditions: Homo sapiens, 72 h; T47D cells, 2% FBS medium, 3 days
[3] = tested on: BT-474 cells; experiment: Breast cancer cell proliferation, Alamar Blue, BT-474; type: cell-based; conditions: Homo sapiens, 72 h, 2% FBS medium, 3 days
[4] = tested on: SKBR3; experiment: Breast cancer cell proliferation, Alamar Blue, SKBR3; type: cell-based; conditions: Homo sapiens, SK-BR-3, 72 h; SKBR3 cells, 2% FBS medium, 3 days
[5] = tested on: MDA-MB-231; experiment: Breast cancer cell proliferation, Alamar Blue, MDA-MB-231; type: cell-based; conditions: Homo sapiens, 72 h; MDA-MB-231 cells, 2% FBS medium, 3 days
[6] = tested on: MCF-10A cells; experiment: Cytotoxicity to normal breast cells, Alamar Blue, MCF-10A; type: cell-based; conditions: Homo sapiens, 72 h; MCF-10A normal breast cells, 2% FBS medium, 3 days
[7] = molecular target: T1, CDK1 (Homo sapiens, UniProt P06493); experiment: CDK1 kinase assay (ADP-Glo / Kinase-Glo luminescence); type: biochemical; parameters: 1 mg of CDK1 antibodies were used to immunoprecipitate 1 mg of protein from the total cell lysate; endogenous in cells; host or cells: total cell lysate
T1 sequence (P06493 whole entry): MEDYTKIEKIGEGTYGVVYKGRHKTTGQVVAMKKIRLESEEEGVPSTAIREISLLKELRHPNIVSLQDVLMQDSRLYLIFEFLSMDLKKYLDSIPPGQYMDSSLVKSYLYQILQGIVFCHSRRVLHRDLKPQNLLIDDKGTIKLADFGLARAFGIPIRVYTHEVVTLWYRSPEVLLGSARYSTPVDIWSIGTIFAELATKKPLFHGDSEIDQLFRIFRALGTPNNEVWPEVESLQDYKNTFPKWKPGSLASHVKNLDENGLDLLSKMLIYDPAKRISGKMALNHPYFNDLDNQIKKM
T1 sequence (P14635 whole entry partner): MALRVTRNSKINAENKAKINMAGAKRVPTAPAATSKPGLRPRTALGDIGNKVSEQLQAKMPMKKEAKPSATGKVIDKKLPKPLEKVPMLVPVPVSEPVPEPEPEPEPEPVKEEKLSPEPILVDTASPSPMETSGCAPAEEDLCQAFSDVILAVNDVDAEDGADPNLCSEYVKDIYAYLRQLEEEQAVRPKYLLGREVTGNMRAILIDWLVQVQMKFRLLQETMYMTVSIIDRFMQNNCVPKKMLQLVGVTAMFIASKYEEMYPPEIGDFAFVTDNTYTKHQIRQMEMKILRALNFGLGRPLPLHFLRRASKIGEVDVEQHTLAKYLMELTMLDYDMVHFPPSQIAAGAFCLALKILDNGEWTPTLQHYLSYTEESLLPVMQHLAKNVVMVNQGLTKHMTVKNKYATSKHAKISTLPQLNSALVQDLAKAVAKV
Protocol: Promega’s Kinase-Glo luminescence assay was used for detection of CDK1 activity. IgG was used as a negative control, and 1 mg of CDK1 antibodies were used to immunoprecipitate 1 mg of protein from the total cell lysate. At […], the reaction mixture was incubated for three hours and subsequently, beads were washed three times with lysis buffer, following overnight incubation at […]. The reactant beads were added to […] kinase reaction buffer containing 0.2 mM ATP, 2 mM DTT, 0.1 mg/mL BSA, 20 mM MgCl2, and 40 mM Tris-HCl, and beads were resuspended for 30 min at room temperature with a CDK1/2 specific substrate (p53). A total of 10 µl of ADP-GLO reagent and […] of kinase detection reagent were added to the reaction for 40 min at room temperature and 5 min at room temperature, respectively. […]
Since the ADP-GloTM Kinase Assay uses multiple enzymes as components, it should not generate a high rate of interference or false responses when screening pyranopyrazoles anti-CDK1 activity. […] Based on the luminescence units for compounds 5b and 5f, Figure 8 illustrates the standard curves generated for inhibition of cdk1 activity by pyranopyrazoles at different concentrations. […]
Figure 8 In vitro inhibition of CDK1 by compounds 5b (A) and 5f (B). The inhibitory effect of pyranopyrazoles on CKD1 measured using ADP−Glo™ reagent. […]

[8] = molecular target: T1, CDK1; parameters: method as in PMID 34156352; conditions: literature value; cited from earlier work

Structure (SMILES) | IC50 ([1]; Homo sapiens, MCF7, 72 h) [µM] | melting point [°C] | effect on viability of MCF-7 cells ([1]; 72 h) | IC50 ([1]; 72 h) | IC50 [2] [µM] | IC50 [3] [µM] | IC50 [4] [µM] | IC50 [5] [µM] | IC50 [6] [µM] | IC50 [7] [µM] | IC50 [8] [µM]
Cc1n[nH]c2c1C(c1ccc(-c3cncnc3)cc1)C(C#N)=C(N)O2 (stereo not shown) [5a, 6-Amino-3-methyl-4-(4-(pyrimidin-5-yl)phenyl)-1,4-dihydropy-rano [2,3-c] Pyrazole-5-carbonitrile] | 55 | 196 to 198 | – | – | – | – | – | – | – | – | –
Cc1cc(-c2cccc(C3C(C#N)=C(N)Oc4[nH]nc(C)c43)c2)cnc1F (stereo not shown) [5b, 6-Amino-4-(3-(6-fluoro-5-methylpyridin-3-yl)phenyl)-3-methyl-1,4-dihydropyrano [2,3-c] Pyrazole-5-carbonitrile] | 17.8 | 214 to 215 | dose–dependent decrease | 17.2 µM and 17 µM | 27.5 | 23.7 | > 100 | 13.5 | 90.5 | 0.96 | –
Cc1n[nH]c2c1C(c1cccc(-c3ccncc3)c1)C(C#N)=C(N)O2 (stereo not shown) [5c, 6-Amino-3-methyl-4-(3-(pyridin-4-yl)phenyl)-1,4-dihydropyrano [2,3-c] Pyrazole-5-carbonitrile] | – | 245 to 247 | – | – | 33.7 | 21.3 | 69.4 | 15 | 88.2 | – | –
Cc1cc(-c2cccc(C3C(C#N)=C(N)Oc4[nH]nc(C)c43)c2)cnc1Cl (stereo not shown) [5d, 6-Amino-4-(3-(6-chloro-5-methylpyridin-3-yl)phenyl)-3-methyl-1,4-dihydropyrano [2,3-c] Pyrazole-5-carbonitrile] | 38.9 | 212 to 214 | dose–dependent decrease | – | – | – | – | – | – | – | –
Cc1n[nH]c2c1C(c1ccc(-c3ccncc3)cc1)C(C#N)=C(N)O2 (stereo not shown) [5e, 6-Amino-3-methyl-4-(4-(pyridin-4-yl)phenyl)-1,4-dihydropyra-no [2,3-c] Pyrazole-5-carbonitrile] | > 100 | 232 to 234 | – | – | > 100 | 50.2 | > 100 | 22.1 | > 100 | – | –
Cc1cc(-c2ccc(C3C(C#N)=C(N)Oc4[nH]nc(C)c43)cc2)cnc1F (stereo not shown) [5f, 6-Amino-4-(4-(6-fluoro-5-methylpyridin-3-yl)phenyl)-3-methyl-1,4-dihydropyrano [2,3-c] Pyrazole-5-carbonitrile] | 23.8 | 268 to 269 | dose–dependent decrease | – | 45.8 | 15.2 | > 100 | 19.1 | > 100 | 7.16 | –
Cc1nn(-c2ccc(Cl)cc2)c2c1C(c1cccc(-c3cncnc3)c1)C(C#N)=C(N)O2 (stereo not shown) [5g, 6-Amino-1-(4-chlorophenyl)-3-methyl-4-(3-(pyrimidin-5-yl)phenyl)-1,4-dihydropyrano [2,3-c] Pyrazole-5-carbonitrile] | – | 242 to 243 | – | – | – | – | – | – | – | – | –
O=C(c1cc(Cc2n[nH]c(=O)c3ccccc23)ccc1F)N1CCN(C(=O)C2CC2)CC1 [Olaparib, reference compound] | 3.28 | – | – | – | – | – | – | – | – | – | –
CC(C)CC(=O)Nc1[nH]nc2c1CN(C(=O)C1CCN(C)CC1)C2(C)C [PHA-793887] | – | – | – | – | – | – | – | – | – | – | 0.06
